{"source": "patent US9526717B2", "about": "“Composition for treating immune diseases containing daurinol compound as active ingredient” (THE CATHOLIC UNIVERSITY OF KOREA INDUSTRY-ACADEMIC …, priority 2013, dated 2016)", "key": {"[1]": {"system": "animal model with induced inflammatory bowel disease", "test": "Weight, disease activity index and length of intestine in animal model with inflammatory bowel disease", "assay_type": "in vivo, mouse", "text": "For the confirmation of the effect of the daurinol compound of the present invention on the treatment of inflammatory bowel disease, the present inventors first constructed an animal model with induced inflammatory bowel disease. For the experimental model, C57BL/6(H-2kb) mice were used. For the construction of an animal model with induced inflammatory bowel disease, the mice were fed with 3.5% dextran sulfate sodium (DSS) and water for a week, thereby preparing an animal model with induced inflammatory bowel disease. The present inventors divided the experimental animals into a normal control group, a group of an animal model with induced inflammatory bowel disease, and a group of an animal model with induced inflammatory bowel disease treated with daurinol or a TNF-α inhibitor, and the group treated with daurinol was administered orally and intrarectally with daurinol (20 mg/kg) from the 4th day after the induction with the disease. […] Additionally, one of the features of inflammatory bowel disease is that the damage and shortening of the length of the large intestine are related to the disease activity index. For the analysis of the therapeutic effect of daurinol on the inflammatory bowel disease, the experimental animals were euthanased two weeks after the daurinol treatment, and the length of their intestines were measured."}, "[2]": {"system": "animal model with collagen induced arthritis (CIA)", "test": "Expression of inflammatory cytokines in joints of CIA animals (tissue staining)", "assay_type": "in vivo, mouse", "conditions": "injected intravenously, three weeks after"}, "[3]": {"system": "animal model with collagen induced arthritis (CIA)", "test": "Histological examination of joints of CIA animals", "assay_type": "in vivo, mouse", "conditions": "injected intravenously, three weeks after, H&E, Toluidine blue, Safranin O"}, "[4]": {"system": "bone marrow macrophages (BMM)", "test": "Inhibitory effect on the differentiation of osteoclasts (TRAP+ multinucleate cells)", "assay_type": "cell-based, mouse", "conditions": "RANKL 50 ng/mL, M-CSF 30 ng/mL, 4 days", "text": "ICR mice (6 to 9 week-old male) were subjected to cervical dislocation and disinfected with 70% ethanol. The skin in the tibia area was cut off and the muscles attached thereto were detached. The distal center of tibia was cut off and tibia was ablated by dislocating patella. Both ends of the bone were slightly cut off and a 25G injection needle was indwelled therein on one end and α-MEM was flowed thereon and bone marrow cells were thereby collected into a test tube. After centrifugation, the resultant was suspended in α-MEM and red blood cells were removed by adding two volumes of Gey's solution. After centrifugation, the resultant was resuspended in α-MEM including 10% FBS and cultured to be used.\nThe cultured bone marrow cells were cultured overnight with macrophage colony stimulating factor (“M-CSF”, hereinafter) (10 ng/mL), and the suspension cells were cultured further with M-CSF (30 ng/mL) for 3 days, and thereby bone marrow macrophages (“BMM”) were formed. The thus-formed BMM was collected and cultured in 1×10^5 cells/well in the presence of receptor activator of NF-κB ligand (RANKL) (50 ng/mL), which is an osteoclast differentiation factor, and M-CSF (30 ng/mL) for 4 days. […] The resultant was observed under a microscope and TRAP+ cells having three or more nuclei were determined as multinucleate osteoclasts."}, "[5]": {"system": "splenocytes of the animal model with lupus", "test": "TNF-α level in splenocytes of animal model with lupus (ELISA)", "assay_type": "cell-based", "conditions": "daurinol 1 μM and 5 μM, anti-CD3 0.5 μg/mL or LPS 100 ng/mL, three days", "method": "Additionally, for the confirmation of the effect of controlling the formation of inflammatory cytokines, the splenocytes of the animal model with lupus were treated with daurinol (1 μM and 5 μM) and anti-CD3 (0.5 μg/mL) or LPS (100 ng/mL) for three days and the levels of IL-17 and TNF-α inflammatory cytokines were evaluated by ELISA assay."}, "[6]": {"system": "regulatory T lymphocytes (Treg)", "test": "Regulatory T cells (Treg) by flow cytometer in allogenic reaction", "assay_type": "cell-based, mouse", "conditions": "control not treated 7.27%", "method": "For the confirmation of the effect of the daurinol compound on the inhibition of T cell proliferation and the expression amount of IL-17, the CD4+ T cells (2×10^5 cells) of a normal recipient (Balb/c, responder), and the T cell-removed splenocytes (2×10^5 cells) derived from a recipient (homogenic) or the splenocytes (2×10^5 cells) derived from a donor (C57BL/6, stimulator, allogenic) exposed to irradiation were added to each well of a 96-well round bottom plate, mixed, and cultured in vitro. In particular, the T cell proliferation and the secretion of IL-17 when an allogenic reaction was untreated with daurinol or treated with daurinol at 0.5 μM, 2 μM, 10 μM, and 20 μM, respectively, were observed.\nIn this regard, for the confirmation of the effect of the daurinol compound according to the present invention on the activity of regulatory T lymphocytes (Treg), the present inventors analyzed the T cells isolated in Example <4-2> by a flow cytometer. That is, the T cells isolated in Example <4-2> were collected, washed with the FACs buffer, and reacted at 4° C. for the blocking of nonspecific binding for 5 minutes, and washed with the FACs buffer. […] Upon staining of the cells, the cells were washed with buffer and analyzed using the fluorescent-activated cell sorter (FACs)."}, "[7]": {"system": "animal model with inflammatory bowel disease", "test": "Expression of inflammatory cytokines in the tissues of the large intestine of IBD model", "assay_type": "in vivo, mouse", "conditions": "daurinol treated", "text": "For the confirmation of the effect of the daurinol compound of the present invention on the treatment of inflammatory bowel disease, the present inventors first constructed an animal model with induced inflammatory bowel disease. For the experimental model, C57BL/6(H-2kb) mice were used. For the construction of an animal model with induced inflammatory bowel disease, the mice were fed with 3.5% dextran sulfate sodium (DSS) and water for a week, thereby preparing an animal model with induced inflammatory bowel disease. The present inventors divided the experimental animals into a normal control group, a group of an animal model with induced inflammatory bowel disease, and a group of an animal model with induced inflammatory bowel disease treated with daurinol or a TNF-α inhibitor, and the group treated with daurinol was administered orally and intrarectally with daurinol (20 mg/kg) from the 4th day after the induction with the disease."}}}
{"compound": "COc1cc2c(-c3ccc4c(c3)OCO4)c3c(cc2cc1O)COC3=O", "note": "[daurinol]", "values": [{"measurement": "disease activity index (DAI)", "setting": "[1]; DSS-induced IBD C57BL/6 mice, daurinol 20 mg/kg orally and intrarectally from 4th day", "value": "significant decrease"}, {"measurement": "weight", "setting": "[1]; DSS-induced IBD C57BL/6 mice, daurinol 20 mg/kg orally and intrarectally from 4th day, vs IBD group", "value": "significant improvement in weight"}, {"measurement": "length of the intestine", "setting": "[1]; DSS-induced IBD mice, two weeks after the daurinol treatment, vs IBD group", "value": "significant increase in the length of the intestine"}, {"measurement": "expression level of IL-1beta in joints", "setting": "[2]", "value": "significantly reduced"}, {"measurement": "expression level of IL-6 in joints", "setting": "[2]", "value": "significantly reduced"}, {"measurement": "expression level of IL-17 in joints", "setting": "[2]", "value": "significantly reduced"}, {"measurement": "expression level of TNF-α in joints", "setting": "[2]", "value": "significantly reduced"}, {"measurement": "degree of destruction of joints and cartilage", "setting": "[3]", "value": "not exhibited to be severe"}, {"measurement": "differentiation of osteoclasts reduced by (number of TRAP+ multinucleate cells)", "setting": "[4]; daurinol 2 μM", "value": "≥ 60", "unit": "%"}, {"measurement": "differentiation of osteoclasts (number of TRAP+ multinucleate cells)", "setting": "[4]; daurinol 10 μM", "value": "no differentiation of osteoclasts was observed"}, {"measurement": "expression of TNF-α (ELISA)", "setting": "[5]", "value": "inhibited the expression of IL-17 and TNF-α in a dose-dependent manner"}, {"measurement": "Treg cells", "setting": "[6]; daurinol 1 μM", "value": 9.18, "unit": "%"}, {"measurement": "Treg cells", "setting": "[6]; daurinol 5 μM", "value": 16.6, "unit": "%"}, {"measurement": "expression of IL-1b in the tissues of the large intestine", "setting": "[7]", "value": "significantly inhibit"}, {"measurement": "expression of IL-6 in the tissues of the large intestine", "setting": "[7]", "value": "significantly inhibit"}, {"measurement": "expression of IL-8 in the tissues of the large intestine", "setting": "[7]", "value": "significantly inhibit"}, {"measurement": "expression of IL-17 in the tissues of the large intestine", "setting": "[7]", "value": "significantly inhibit"}, {"measurement": "expression of TNF-α in the tissues of the large intestine", "setting": "[7]", "value": "significantly inhibit"}]}
